We go through eight compounds from PMC12592319, “Predicting Food Effect On Oral Drug Absorption For Solubility-Epithelial Membrane Permeation-Limited Cases With Bile Micelle Solubilization” (Pharmaceutical Research, 2025).

Series [1] can be described thus: FaRLS diagnosis by Fa equation and Peff equation (Table S3, dose number). To be noted: for Dose number, Fasted / Dose number, Fed: clinical dose; for Dose number, Fasted: Sdissolv in FaSSIF; for Dose number, Fed: Sdissolv in FeSSIF.
A short description of series [2]: Equilibrium solubility measurement (shake-flask) in blank FaSSIF, FaSSIF, FeSSIF. It is filed as physicochemical. To be noted: for Ratio (fed/fasted) Sdissolv: FeSSIF/FaSSIF, corresponds to Fafed/Fafasted predicted by Eq. (18); for solubility at 72 h: thermodynamic from solid, pH 6.5, 37°C, mean ± S.D., N = 3. The protocol: A shake-flask method was used for equilibrium solubility measurement. Each drug (10 mg) was added to the 15 mL test tube. Blank FaSSIF (28.7 mM phosphate buffer, pH 6.5 adjusted by NaOH), FaSSIF (3 mM TC, 0.75 mM EL in blank FaSSIF), or FeSSIF (15 mM TC, 3.75 mM EL in blank FaSSIF) was added. The test tube was placed horizontally in a reciprocal shaker. After shaking for 72 h at 37°C (at 90 rpm, motion width: 2.5 cm), the sample was filtered (hydrophilic PVDF, φ = 4.0 mm, pore size: 0.22 µm, Merck). The first few droplets were discarded to avoid filter adsorption. The concentration of each drug was measured by UV absorbance. […] After measuring the final pH (9615S-10D Standard ToupH electrode (HORIBA Advanced Techno Co., Ltd., Kyoto, Japan)), the residual particles were collected by vacuum filtration and analyzed by powder X-ray diffraction (PXRD) (Supplemental Information Figure S1).

Series [3] in a line: μFLUX dissolution-permeation flux experiment. To be noted: for Ratio (fed/fasted) CD,final / Ratio (fed/fasted) JμFLUX: FeSSIF/FaSSIF, μFLUX dose 1/10 of the clinical dose; for fraction unbound: pH 6.5, fu; for CD,final: measured after filtration, 1/10 of clinical dose, mean ± S.D., N = 3; for Pep,u,μFLUX: Peff,μFLUX/fu; for JμFLUX: average of 90 to 120 min (pranlukast 210 to 240 min); for Peff,μFLUX: calculated based on CD,final; for kdiss: calculated from the initial dissolution rate in μFLUX.

Details of series [4]: method as in PMID 20307655, PMID 19465123, PMID 17828749, PMID 23994640. To be noted: pH 6.5; cited from earlier work.
For series [5] the following is noted: clinical AUC ratio fed/fasted, humans; cited from earlier work.
The subject of series [6] is Caco-2. More on the design: method as in PMID 9795088, PMID 10767597, PMID 15032311. To be noted: cited from earlier work.
The conditions of series [7]: Fed; assumed to be the same as Caco-2 Papp; cited from earlier work.
A short description of series [8]: pKa measurement (SiriusT3, UV-metric/pH-metric titration). The format is physicochemical. To be noted: ionic strength 0.168 mol/L, 37°C. On the procedure:
The pKa measurements were performed using a SiriusT3 automatic titrator, with a spectrometric (UV-metric) or titration (pH-metric) method. The UV-metric method used a fiber optic dip probe, a deuterium lamp UV light source, and a photodiode array detector to capture the absorption spectra of a sample solution over the course of three titrations, across the pH range 2.0–12.0. […] Titrations were carried out under a controlled temperature of 37 ± 0.2°C.
SiriusT3 software v2.0 was used to apply principal component analysis to the spectral data to resolve the molar absorptivity spectra of each sample species and determine the psKa values of the compounds in the co-solvent. The pKa values under aqueous conditions were calculated from the co-solvent data using the Yasuda-Shedlovsky extrapolation method.
Additional potentiometric titrations were performed for each drug, which confirmed that no additional non-UV active pKas were present within the titration pH range.

A short description of series [9]: Octanol-water partition/distribution coefficient (logPoct, logDoct). The format is physicochemical. To be noted: calculated from logPoct and pKa using the Henderson-Hasselbalch equation. The text has this: Table II Physicochemical Properties and Caco-2 Permeability of Model Drugs | column: logDoct,pH 6.5^c
For series [10] the following is noted: cited from earlier work.
Where [11] appears, read: bile micelles in FaSSIF, FaSSIF, calculated by Eq. (9) (Sdissolv,u/Sdissolv).
[12] abbreviates: bile micelles in FeSSIF, FeSSIF, calculated by Eq. (9) (Sdissolv,u/Sdissolv).
[13] abbreviates: FaSSIF, read-out: Solubility, FaSSIF.
Setting [14] is: FeSSIF, read-out: Solubility, FeSSIF.
[15] abbreviates: blank FaSSIF, read-out: Solubility, Blank FaSSIF.

Values after ≈ are worked out from the molar mass of the structure shown. Where two headings read alike, the source gives them in different places.

On to `O=C(Nc1cccc2c(=O)cc(-c3nnn[nH]3)oc12)c1ccc(OCCCCc2ccccc2)cc1` [Pranlukast], for which, in series [1], the “Dose number, Fasted” value came to 20 and the “Dose number, Fed” value is listed as 2. In addition, in series [2], the “Ratio (fed/fasted) Sdissolv” value is reported as 9.1. Also, in series [3] (FeSSIF), the “Bound to bile micelles” value is on record as 99.6%. Besides, in series [3], the “Ratio (fed/fasted) CD,final” value is recorded as 20 and the “Ratio (fed/fasted) JμFLUX” value stood at 2.4. In addition, in [3] (FeSSIF, calculated by Eq. (9) (Sdissolv,u/Sdissolv)), the fu was 0.0041. The fraction unbound (usually the share of the substance not bound to proteins or other matrix) in series [3] (setting [11]) is 0.038. For the same compound, the fraction unbound in series [3] (setting [12]) was 0.004. Moreover, in [3] (donor FaSSIF pH 6.5), the “CD,final” value stood at 56 ± 1 µg/mL. In addition, in series [3] (donor FaSSIF), the “Pep,u,μFLUX” value is given as 10 ± 2 10^–5 cm/s, the JμFLUX is on record as 0.20 ± 0.05 10–^3 μg/cm^2/s and the “Peff,μFLUX” value was 0.37 ± 0.09 10^–5 cm/s. Also, in [3] (donor FeSSIF pH 6.5), the “CD,final” value is recorded as 1100 ± 0^ h μg/mL. In [3] (donor FeSSIF), the “Pep,u,μFLUX” value is listed as 10 ± 4 10^–5 cm/s, the JμFLUX is recorded as 0.47 ± 0.16 10–^3 μg/cm^2/s and the “Peff,μFLUX” value is given as 0.043 ± 0.015 10^–5 cm/s. In series [4], the “Solubility, Blank FaSSIF” value is 3 µg/mL (≈ 6.23 µM); the “Solubility, FaSSIF” value is 88 µg/mL (≈ 183 µM); the “Solubility, FeSSIF” value is 800 µg/mL (≈ 1660 µM). Moreover, the “Ratio (fed/fasted) AUCr” value in series [5] is listed as 1.3. Further, in series [6], the “Caco-2 Papp” value is 0.08 [54] 10^–6 cm/s.

`CCc1c(Cl)c(O)c(Cl)c(O)c1C(=O)O[C@H]1[C@H](O)[C@H](OC)[C@H](OC/C2=C\C=C\C[C@H](O)/C(C)=C/[C@H](CC)[C@@H](O[C@@H]3OC(C)(C)[C@@H](OC(=O)C(C)C)[C@H](O)[C@@H]3O)/C(C)=C/C(C)=C/C[C@@H]([C@@H](C)O)OC2=O)O[C@@H]1C` [Fidaxomicin]: the “Pep,u” value in [7] is 0.092 10^-6 cm/s. In addition, the Dn was 3.7 in [1] (Fasted) and 9.3 in series [1] (Fed). The results for the Do in [1] (Fasted) and in series [1] (Fed) were 20 and 7.2, respectively. Besides, the Pep was 0.055 10^-6 cm/s in series [1] (Fasted) and 0.024 10^-6 cm/s in [1] (Fed). Further, the results for the “Pep'” value in series [1] (Fasted) and in series [1] (Fed) were 0.55 10^-6 cm/s and 0.24 10^-6 cm/s, respectively. Also, the “Dose number, Fasted” value in series [1] is listed as 20. The “Dose number, Fed” value in series [1] is 7. Further, the fraction unbound in series [1] (human, bile micelles in FaSSIF, pH 6.5) was 0.6; in series [3] (setting [11]), 0.6; in series [3] (setting [12]) it was 0.26. Also, the solubility (commonly how much of the substance goes into solution per volume) at 72 h is 77 ± 1 µg/mL (≈ 72.8 µM) in series [2] (setting [13]), 178 ± 2 µg/mL (≈ 168 µM) in [2] (setting [14]) and 46 ± 1 µg/mL (≈ 43.5 µM) in series [2] (setting [15]). Moreover, the “Ratio (fed/fasted) Sdissolv” value in [2] was 2.3. Moreover, in series [8] (acidic pKa, read-out: pKa (A)), the pKa – broadly, the negative logarithm of the acid dissociation constant – amounted to 5.15. For the same compound, the “logDoct,pH 6.5” value in series [9] was 2.3. For the same compound, the kdiss was 0.0002967 s⁻¹ in series [3] (Fasted) and 0.0007389 s⁻¹ in [3] (Fed). The “Pep,u,μFLUX less in the fed condition than in the fasted condition” value in series [3] (FeSSIF vs FaSSIF) is listed as “about 40%”. For the same compound, the “Ratio (fed/fasted) CD,final” value in [3] is 3.1. In addition, the “Ratio (fed/fasted) JμFLUX” value in series [3] was determined as 0.81. In addition, the results for the “CD,final” value in [3] (donor FaSSIF pH 6.5) and in series [3] (donor FeSSIF pH 6.5) were 72 ± 0 µg/mL and 220 ± 0^ h μg/mL, respectively. The “Pep,u,μFLUX” value is 17 ± 2 10^–5 cm/s in series [3] (donor FaSSIF) and 10 ± 1 10^–5 cm/s in series [3] (donor FeSSIF). Besides, the results for the JμFLUX in series [3] (donor FaSSIF) and in series [3] (donor FeSSIF) were 7.4 ± 0.7 10–^3 μg/cm^2/s and 6.0 ± 0.7 10–^3 μg/cm^2/s, respectively. The “Peff,μFLUX” value in series [3] (donor FaSSIF) is 10 ± 1 10^–5 cm/s; in [3] (donor FeSSIF), 2.7 ± 0.3 10^–5 cm/s. In addition, the “Time after which CD reached a plateau” value in series [3] (donor solution) came to 20 min. For the same compound, the “Ratio (fed/fasted) AUCr” value in series [5] is listed as 1.0. For the same compound, in series [10], the logPoct is 3.7.

Take `Cc1cn(-c2cc(NC(=O)c3ccc(C)c(Nc4nccc(-c5cccnc5)n4)c3)cc(C(F)(F)F)c2)cn1.Cl` [nilotinib HCl]: in [10], the logPoct is above 5.

On to `CC1(C)CCC(CN2CCN(c3ccc(C(=O)NS(=O)(=O)c4ccc(NCC5CCOCC5)c([N+](=O)[O-])c4)c(Oc4cnc5[nH]ccc5c4)c3)CC2)=C(c2ccc(Cl)cc2)C1` [venetoclax], for which, in [10], the logPoct is recorded as above 5.

Turning to `Cc1cc(C#N)cc(C)c1Oc1nc(Nc2ccc(C#N)cc2)nc(N)c1Br` [etravirine], the logPoct in series [10] is above 5.

With `CO[C@H]1/C=C/O[C@@]2(C)Oc3c(C)c(O)c4c(O)c(c5c(nc6cc(C)ccn65)c4c3C2=O)NC(=O)/C(C)=C\C=C\[C@H](C)[C@H](O)[C@@H](C)[C@@H](O)[C@@H](C)[C@H](OC(C)=O)[C@@H]1C` [Rifaximin], the solubility at 72 h in series [2] (setting [13]) worked out at 3.4 µg/mL (≈ 4.33 µM); in series [2] (setting [14]) it was 12 µg/mL (≈ 15.3 µM); in series [2] (setting [15]), 1.8 µg/mL (≈ 2.29 µM). For the same compound, the pKa is below 2 in series [8] (acidic pKa, read-out: pKa (A)) and 8.29 in series [8] (basic pKa, read-out: pKa (B)). Also, the “logDoct,pH 6.5” value in series [9] is on record as 2.6. The “Caco-2 Papp” value in series [6] was 1 [55] 10^–6 cm/s.

Consider `COc1cc(F)c(C(C)C)cc1-c1ccc(C(F)(F)F)cc1CN1C(=O)O[C@H](c2cc(C(F)(F)F)cc(C(F)(F)F)c2)[C@@H]1C` [anacetrapib], for which the logPoct in series [10] is on record as above 5.

As to `C#C[C@]1(O)CC[C@H]2[C@@H]3CCC4=Cc5oncc5C[C@]4(C)[C@H]3CC[C@@]21C` [Danazol], the “Dose number, Fasted” value in [1] worked out at 43. Besides, the “Dose number, Fed” value in series [1] was determined as 14. The “logDoct,pH 6.5” value in series [9] is given as 4.5. The fraction unbound in series [3] (setting [11]) is 0.011; in series [3] (setting [12]) it was 0.0043. Moreover, the logPoct in series [10] was 4.5.
